From patent US12492188B2, “1H-benzo[D]imidazole derivatives as TLR9 inhibitors for the treatment of fibrosis” (BRISTOL-MYERS SQUIBB COMPANY, priority 2020, dated 2025)
Read-outs that look alike come from different tables or passages of the source.

Experiments:
Format in all cases: cell-based
[1] = target: T1, human TLR9 (Homo sapiens, UniProt Q9NR96); assay: TLR9 inhibition reporter assay (HEK-Blue cells, secreted embryonic alkaline phosphatase reporter)
T1 construct: host or cells: HEK-Blue cells (HEK293-derived reporter line)
T1 sequence (Q9NR96 26-1032): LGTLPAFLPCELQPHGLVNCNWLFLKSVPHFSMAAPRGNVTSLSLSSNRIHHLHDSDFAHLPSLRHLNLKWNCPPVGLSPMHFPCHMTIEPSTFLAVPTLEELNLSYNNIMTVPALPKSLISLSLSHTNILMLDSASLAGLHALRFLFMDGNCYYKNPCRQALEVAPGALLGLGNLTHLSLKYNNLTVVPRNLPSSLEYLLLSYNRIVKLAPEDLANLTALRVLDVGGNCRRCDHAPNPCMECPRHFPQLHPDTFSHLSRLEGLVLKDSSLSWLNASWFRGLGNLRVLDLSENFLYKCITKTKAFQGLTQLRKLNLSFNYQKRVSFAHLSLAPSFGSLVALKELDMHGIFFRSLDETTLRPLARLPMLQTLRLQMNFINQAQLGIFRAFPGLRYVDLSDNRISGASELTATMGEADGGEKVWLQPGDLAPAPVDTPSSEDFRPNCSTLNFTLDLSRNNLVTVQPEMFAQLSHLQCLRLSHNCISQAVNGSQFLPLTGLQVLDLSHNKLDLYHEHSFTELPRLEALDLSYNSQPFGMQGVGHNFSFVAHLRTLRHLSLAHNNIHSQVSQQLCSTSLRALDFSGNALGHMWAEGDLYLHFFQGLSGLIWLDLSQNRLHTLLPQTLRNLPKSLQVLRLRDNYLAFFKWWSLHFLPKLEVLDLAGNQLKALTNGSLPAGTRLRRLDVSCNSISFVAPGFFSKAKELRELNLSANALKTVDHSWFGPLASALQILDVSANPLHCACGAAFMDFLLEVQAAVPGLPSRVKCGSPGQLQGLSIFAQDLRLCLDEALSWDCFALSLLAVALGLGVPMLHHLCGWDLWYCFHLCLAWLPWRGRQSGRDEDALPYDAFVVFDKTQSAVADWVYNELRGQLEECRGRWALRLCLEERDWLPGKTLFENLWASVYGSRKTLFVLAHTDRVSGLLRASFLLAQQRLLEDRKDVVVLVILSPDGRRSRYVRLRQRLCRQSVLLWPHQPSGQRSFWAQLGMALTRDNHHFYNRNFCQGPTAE
Summary of the method: (§1)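 Inhibitors are tested in dose response (0.05 nM–50 μM) on HEK-Blue reporter cells expressing human TLR7, TLR8 or TLR9. After 30 min at room temperature, each line is stimulated with its own agonist (gardiquimod 7.5 μM, R848 15.9 μM or ODN2006 5 nM, final) and SEAP is measured 22 h later.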

[2] = target: T2, human TLR7 (Homo sapiens, UniProt Q9NYK1); assay: TLR7 inhibition reporter assay (HEK-Blue cells, secreted embryonic alkaline phosphatase reporter); details: HEK-Blue cells overexpressing human TLR7, stimulated with gardiquimod 7.5 μM; read-out: TLR 7 IC50
T2 construct: host or cells: HEK-Blue cells (HEK293-derived reporter line)
T2 sequence (Q9NYK1 27-1049): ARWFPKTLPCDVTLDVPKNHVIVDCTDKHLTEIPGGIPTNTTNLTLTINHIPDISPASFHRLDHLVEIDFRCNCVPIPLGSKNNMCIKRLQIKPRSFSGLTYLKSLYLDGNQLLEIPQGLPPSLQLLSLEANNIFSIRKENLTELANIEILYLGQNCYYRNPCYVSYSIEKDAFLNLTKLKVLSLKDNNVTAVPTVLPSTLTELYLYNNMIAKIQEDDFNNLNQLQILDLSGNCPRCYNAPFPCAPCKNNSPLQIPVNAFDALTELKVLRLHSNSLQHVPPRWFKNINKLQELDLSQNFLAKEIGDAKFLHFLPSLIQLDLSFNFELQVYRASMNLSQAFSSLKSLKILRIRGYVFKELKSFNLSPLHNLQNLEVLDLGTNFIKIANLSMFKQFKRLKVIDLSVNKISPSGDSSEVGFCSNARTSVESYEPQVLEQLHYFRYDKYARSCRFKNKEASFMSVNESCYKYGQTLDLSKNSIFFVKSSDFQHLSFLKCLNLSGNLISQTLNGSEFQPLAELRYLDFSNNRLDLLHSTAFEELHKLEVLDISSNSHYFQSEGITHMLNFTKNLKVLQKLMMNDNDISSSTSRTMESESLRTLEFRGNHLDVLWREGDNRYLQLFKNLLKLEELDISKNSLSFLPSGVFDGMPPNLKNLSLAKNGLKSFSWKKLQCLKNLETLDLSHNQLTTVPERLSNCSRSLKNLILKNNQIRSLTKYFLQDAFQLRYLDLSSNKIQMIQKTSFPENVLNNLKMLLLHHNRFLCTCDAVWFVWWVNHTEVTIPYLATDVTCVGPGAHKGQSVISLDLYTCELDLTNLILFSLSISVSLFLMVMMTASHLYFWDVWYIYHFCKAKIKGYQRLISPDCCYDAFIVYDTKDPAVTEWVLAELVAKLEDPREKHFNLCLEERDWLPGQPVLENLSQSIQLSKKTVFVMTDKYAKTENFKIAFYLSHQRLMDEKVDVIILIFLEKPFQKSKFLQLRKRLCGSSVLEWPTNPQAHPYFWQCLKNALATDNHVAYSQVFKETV
Summary of the method: as §1

[3] = target: T3, human TLR8 (Homo sapiens, UniProt Q9NR97); assay: TLR8 inhibition reporter assay (HEK-Blue cells, secreted embryonic alkaline phosphatase reporter); details: HEK-Blue cells overexpressing human TLR8, stimulated with R848 15.9 μM; read-out: TLR 8 IC50
T3 construct: host or cells: HEK-Blue cells (HEK293-derived reporter line)
T3 sequence (Q9NR97 27-1041): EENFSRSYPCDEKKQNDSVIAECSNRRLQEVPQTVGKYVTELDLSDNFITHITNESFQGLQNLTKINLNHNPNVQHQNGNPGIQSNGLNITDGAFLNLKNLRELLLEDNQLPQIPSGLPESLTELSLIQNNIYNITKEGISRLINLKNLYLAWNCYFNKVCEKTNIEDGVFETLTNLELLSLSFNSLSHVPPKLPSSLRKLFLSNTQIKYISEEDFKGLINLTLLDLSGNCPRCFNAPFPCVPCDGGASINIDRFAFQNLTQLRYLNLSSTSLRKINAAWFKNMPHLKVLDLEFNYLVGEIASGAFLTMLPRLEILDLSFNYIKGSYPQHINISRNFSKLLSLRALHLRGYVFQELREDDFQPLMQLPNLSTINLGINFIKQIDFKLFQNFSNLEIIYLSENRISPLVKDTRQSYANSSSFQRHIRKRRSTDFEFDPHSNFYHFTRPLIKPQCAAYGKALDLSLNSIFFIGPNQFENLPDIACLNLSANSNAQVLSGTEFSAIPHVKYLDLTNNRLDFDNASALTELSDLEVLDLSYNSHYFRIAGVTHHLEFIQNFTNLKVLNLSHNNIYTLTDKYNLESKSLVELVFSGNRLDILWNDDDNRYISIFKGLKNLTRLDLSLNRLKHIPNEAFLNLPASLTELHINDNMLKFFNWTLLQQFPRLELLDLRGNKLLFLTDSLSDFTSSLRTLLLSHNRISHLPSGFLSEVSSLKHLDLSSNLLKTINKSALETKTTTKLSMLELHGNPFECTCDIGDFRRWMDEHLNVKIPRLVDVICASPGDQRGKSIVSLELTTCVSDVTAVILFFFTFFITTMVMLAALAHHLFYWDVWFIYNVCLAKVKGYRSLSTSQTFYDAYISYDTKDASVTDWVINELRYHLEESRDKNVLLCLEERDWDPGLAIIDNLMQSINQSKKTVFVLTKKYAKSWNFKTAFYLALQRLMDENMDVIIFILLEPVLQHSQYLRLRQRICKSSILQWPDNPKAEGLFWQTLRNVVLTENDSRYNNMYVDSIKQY
Summary of the method: as §1

[4] = HEK-Blue cells overexpressing human TLR9, stimulated with ODN2006 5 nM, read-out: TLR 9 IC50

Row | Compound | IC50 [1] | IC50 [1, 4] | IC50 [2] | IC50 [3]
1 | COCCN1C2CCC1CC(N1CCC(c3cc(C)c4nc(-c5ccc(OC)c(OC)c5)n(C)c4c3)CC1)C2 (single isomer, unassigned) [Example 168, 2-(3,4-dimethoxyphenyl)-6-(1-(8-(2-methoxyethyl)-8-azabicyclo[3.2.1]octan-3-yl)piperidin-4-yl)-1,4-dimethyl-1H-benzo[d]imidazole] | 51 nM | 51 nM | 14000 nM | > 25000 nM
2 | COCCN1C2CCC1CC(N1CCC(c3cc(C)c4nc(-c5ccc(OC)c(OC)c5)n(C)c4c3)CC1)C2 (single isomer, unassigned) [Example 169, 2-(3,4-dimethoxyphenyl)-6-(1-(8-(2-methoxyethyl)-8-azabicyclo[3.2.1]octan-3-yl)piperidin-4-yl)-1,4-dimethyl-1H-benzo[d]imidazole] | 200 nM | 204 nM | 10500 nM | 23700 nM
3 | CC(C)CN1C2CCC1CC(N1CCC(c3ccc4c(nc(-c5ccc(S(C)(=O)=O)cc5)n4C)c3F)CC1)C2 (single isomer, unassigned) [Example 189, 4-fluoro-5-(1-(8-isobutyl-8-azabicyclo[3.2.1]octan-3-yl)piperidin-4-yl)-1-methyl-2-(4-(methylsulfonyl)phenyl)-1H-benzo[d]imidazole] | 150 nM | 154 nM | > 50000 nM | > 50000 nM
4 | CC(C)CN1C2CCC1CC(N1CCC(c3ccc4c(nc(-c5ccc(S(C)(=O)=O)cc5)n4C)c3F)CC1)C2 (single isomer, unassigned) [Example 190, 4-fluoro-5-(1-(8-isobutyl-8-azabicyclo[3.2.1]octan-3-yl)piperidin-4-yl)-1-methyl-2-(4-(methylsulfonyl)phenyl)-1H-benzo[d]imidazole] | 2600 nM | 2630 nM | > 50000 nM | > 50000 nM
5 | Cn1c(-c2ccc(S(C)(=O)=O)cc2)nc2c(F)c(C3CCN(C4CC5CCC(C4)N5CC4CC4)CC3)ccc21 (single isomer, unassigned) [Example 191, 5-(1-(8-(cyclopropylmethyl)-8-azabicyclo[3.2.1]octan-3-yl)piperidin-4-yl)-4-fluoro-1-methyl-2-(4-(methylsulfonyl)phenyl)-1H-benzo[d]imidazole] | 96 nM | 96 nM | 3800 nM | > 50000 nM
6 | Cn1c(-c2ccc(S(C)(=O)=O)cc2)nc2c(F)c(C3CCN(C4CC5CCC(C4)N5CC4CC4)CC3)ccc21 (single isomer, unassigned) [Example 192, 5-(1-(8-(cyclopropylmethyl)-8-azabicyclo[3.2.1]octan-3-yl)piperidin-4-yl)-4-fluoro-1-methyl-2-(4-(methylsulfonyl)phenyl)-1H-benzo[d]imidazole] | 190 nM | 186 nM | > 50000 nM | > 50000 nM
7 | Cn1c(-c2ccc(S(C)(=O)=O)cc2)nc2c(F)c(C3CCN(C4CC5CCC(C4)N5CC4COC4)CC3)ccc21 (single isomer, unassigned) [Example 193, 4-fluoro-1-methyl-2-(4-(methylsulfonyl)phenyl)-5-(1-(8-(oxetan-3-ylmethyl)-8-azabicyclo[3.2.1]octan-3-yl)piperidin-4-yl)-1H-benzo[d]imidazole] | 82 nM | 82 nM | > 50000 nM | > 50000 nM
8 | Cn1c(-c2ccc(S(C)(=O)=O)cc2)nc2c(F)c(C3CCN(C4CC5CCC(C4)N5CC4COC4)CC3)ccc21 (single isomer, unassigned) [Example 194, 4-fluoro-1-methyl-2-(4-(methylsulfonyl)phenyl)-5-(1-(8-(oxetan-3-ylmethyl)-8-azabicyclo[3.2.1]octan-3-yl)piperidin-4-yl)-1H-benzo[d]imidazole] | 630 nM | 631 nM | 45600 nM | > 50000 nM
9 | COCCN1C2CCC1CC(N1CCC(c3ccc4c(nc(-c5ccc(S(C)(=O)=O)cc5)n4C)c3F)CC1)C2 (single isomer, unassigned) [Example 199, 4-fluoro-5-(1-(8-(2-methoxyethyl)-8-azabicyclo[3.2.1]octan-3-yl)piperidin-4-yl)-1-methyl-2-(4-(methylsulfonyl)phenyl)-1H-benzo[d]imidazole] | 75 nM | 75 nM | 25600 nM | > 50000 nM
10 | COCCN1C2CCC1CC(N1CCC(c3ccc4c(nc(-c5ccc(S(C)(=O)=O)cc5)n4C)c3F)CC1)C2 (single isomer, unassigned) [Example 200, 4-fluoro-5-(1-(8-(2-methoxyethyl)-8-azabicyclo[3.2.1]octan-3-yl)piperidin-4-yl)-1-methyl-2-(4-(methylsulfonyl)phenyl)-1H-benzo[d]imidazole] | 380 nM | 380 nM | 47800 nM | > 50000 nM
